This is an account of results in patent publication US20250215030A1, “STAT MODULATORS AND USES THEREOF” (Recludix Pharma, Inc., priority 2022, published 2025).

The target of this assay is T1, pSTAT3 (pY705-STAT3) (Homo sapiens, UniProt P40763).
T1 construct: host or cells: cryopreserved PBMC
The assay can be described thus: MSD-pSTAT-PBMC Assay (pSTAT3, IL-6 stimulated). The class given is cell-based. In short, it runs like this: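 Human PBMCs (50,000 cells/well for STAT3, 25,000 for STAT6) treated with compound 3 h, then stimulated 10 min with 10 ng/mL IL-6 or 1 ng/mL IL-4. Lysate pSTAT3 (pY705) or pSTAT6 (pY641) measured by MSD sandwich electrochemiluminescence. Signal minus unstimulated, normalized to DMSO; IC50 by variable-slope nonlinear regression.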

Setting [1] is: PBMC, compound 3 hrs, then 10 ng/mL IL-6 for 10 min, MSD pY705-STAT3, read-out: pSTAT3.

Read-outs that look alike come from different tables or passages of the source.

T1 sequence (P40763 whole entry): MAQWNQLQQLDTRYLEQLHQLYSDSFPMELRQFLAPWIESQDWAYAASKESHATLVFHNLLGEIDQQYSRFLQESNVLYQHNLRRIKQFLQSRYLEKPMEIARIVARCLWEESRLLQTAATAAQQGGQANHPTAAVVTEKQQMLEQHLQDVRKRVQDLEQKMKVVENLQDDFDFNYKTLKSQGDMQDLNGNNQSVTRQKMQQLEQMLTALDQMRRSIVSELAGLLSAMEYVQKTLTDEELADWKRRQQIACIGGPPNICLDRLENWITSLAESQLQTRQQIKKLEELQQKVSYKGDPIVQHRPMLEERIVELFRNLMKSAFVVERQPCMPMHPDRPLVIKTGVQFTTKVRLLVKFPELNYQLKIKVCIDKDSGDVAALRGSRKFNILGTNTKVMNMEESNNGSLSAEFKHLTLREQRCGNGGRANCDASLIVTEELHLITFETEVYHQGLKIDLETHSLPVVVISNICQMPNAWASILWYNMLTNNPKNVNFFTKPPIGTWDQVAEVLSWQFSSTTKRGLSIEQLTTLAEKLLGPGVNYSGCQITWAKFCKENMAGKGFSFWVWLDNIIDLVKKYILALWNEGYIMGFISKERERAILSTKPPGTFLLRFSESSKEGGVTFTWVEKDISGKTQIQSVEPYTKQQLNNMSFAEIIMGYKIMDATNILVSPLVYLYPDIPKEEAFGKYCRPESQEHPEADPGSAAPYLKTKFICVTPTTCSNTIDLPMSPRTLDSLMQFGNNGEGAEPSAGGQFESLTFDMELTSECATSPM

Take `CCCOC(=O)[C@H](C)N[P@@](=O)(Oc1ccccc1)[C@H](F)c1ccc2sc(C(=O)N[C@H]3C[C@H]4C[C@H]4C[C@H]4CC[C@@H](C(=O)N5CC(c6cnccc6N(C)C)C5)N4C3=O)cc2c1` [Compound 398, propyl((R)-((S)-(2-(((3S,6S,7aR,8aS,9aR)-3-(3-(4-(dimethylamino)pyridin-3-yl)azetidine-1-carbonyl)-5-oxodecahydro-1H-cyclopropa[d]pyrrolo[1,2-a]azocin-6-yl)carbamoyl)benzo[b]thiophen-5-yl)fluoromethyl)(phenoxy)phosphoryl)-L-ananinate]: the IC50 under setting [1] is less than 100 nM. As for `CCCOC(=O)[C@H](C)N[P@@](=O)(Oc1ccccc1)[C@H](F)c1ccc2sc(C(=O)N[C@H]3C[C@H]4C[C@H]4C[C@H]4CC[C@@H](C(=O)N5CC(c6cnccc6N(C)C)C5)N4C3=O)cc2c1` [Compound 399], the IC50 under setting [1] was less than 100 nM. As for `CCCOC(=O)[C@H](C)NP(=O)(Oc1ccccc1)C(F)c1ccc2sc(C(=O)N[C@H]3C[C@@H]4C[C@@H]4C[C@H]4CC[C@@H](C(=O)N5CC(c6cncnc6N6CCC6)C5)N4C3=O)cc2c1` (stereo partly drawn) [Compound 412, propyl(((S)-(2-(((3S,6S,7aS,8aR,9aR)-3-(3-(4-(azetidin-1-yl)pyrimidin-5-yl)azetidine-1-carbonyl)-5-oxodecahydro-1H-cyclopropa[d]pyrrolo[1,2-a]azocin-6-yl)carbamoyl)benzo[b]thiophen-5-yl)fluoromethyl)(phenoxy)phosphoryl)-L-alaninate], the IC50 was less than 100 nM. On the same count and under the same terms, the figure for `CCCOC(=O)[C@H](C)NP(=O)(Oc1ccccc1)[C@H](F)c1ccc2sc(C(=O)N[C@H]3C[C@@H]4C[C@@H]4C[C@H]4CC[C@@H](C(=O)N5CC(c6cnccc6N6CCOCC6)C5)N4C3=O)cc2c1` (stereo partly drawn) [Compound 413, propyl(((S)-fluoro(2-(((3S,6S,7aS,8aR,9aR)-3-(3-(4-morpholinopyridin-3-yl)azetidine-1-carbonyl)-5-oxodecahydro-1H-cyclopropa[d]pyrrolo[1,2-a]azocin-6-yl)carbamoyl)benzo[b]thiophen-5-yl)methyl)(phenoxy)phosphoryl)-L-alaninate] is less than 100 nM.

Regarding `CCCOC(=O)[C@H](C)N[P@@](=O)(Oc1ccccc1)[C@@H](F)c1ccc2sc(C(=O)N[C@H]3C[C@@H]4C[C@@H]4C[C@H]4CC[C@@H](C(=O)N5CC(c6cnccc6N(C)C)C5)N4C3=O)cc2c1` [Compound 414, propyl((S)-((R)-(2-(((3S,6S,7aS,8aR,9aR)-3-(3-(4-(dimethylamino)pyridin-3-yl)azetidine-1-carbnyl)-5-oxodecahydro-1H-cyclopropa[d]pyrrolo[1,2-a]azocin-6-yl)carbamoyl)benzo[b]thiophen-5-yl)fluoromethyl)(phenoxy)phosphoryl)-L-alaninate], the IC50 under setting [1] was less than 100 nM. For the compound `CCCOC(=O)[C@H](C)NP(=O)(Oc1ccccc1)[C@H](F)c1ccc2sc(C(=O)N[C@H]3C[C@@H]4C[C@@H]4C[C@H]4CC[C@@H](C(=O)N5CC(c6cnccc6N6CC[C@H]6COC)C5)N4C3=O)cc2c1` (stereo partly drawn) [Compound 416, propyl(((S)-fluoro(2-(((3S,6S,7aS,8aR,9aR)-3-(3-(4-((S)-2-(methoxymethyl)azetidin-1-yl)pyridin-3-yl)azetidine-1-carbonyl)-5-oxodecahydro-1H-cyclopropa[d]pyrrolo[1,2-a]azocin-6-yl)carbamoyl)benzo[b]thiophen-5-yl)methyl)(phenoxy)phosphoryl)-L-alaninate], the IC50 is less than 100 nM. The compound `CCCOC(=O)[C@H](C)N[P@](=O)(Oc1ccccc1)C(F)c1ccc2sc(C(=O)N[C@H]3C[C@@H]4C[C@@H]4C[C@H]4CC[C@@H](C(=O)N5CC(c6cnccc6N(C)C)C5)N4C3=O)cc2c1` (stereo partly drawn) [Compound 418, propyl((R)-((S)-(2-(((3S,6S,7aS,8aR,9aR)-3-(3-(4-(dimethylamino)pyridin-3-yl)azetidine-1-carbonyl)-5-oxodecahydro-1H-cyclopropa[d]pyrrolo[1,2-a]azocin-6-yl)carbamoyl)benzo[b]thiophen-5-yl)fluoromethyl)(phenoxy)phosphoryl)-L-alaninate] had an IC50 of less than 100 nM. Same read-out and setting: the figure for `CCCOC(=O)[C@H](C)NP(=O)(Oc1ccccc1)C(F)c1ccc2sc(C(=O)N[C@H]3C[C@@H]4C[C@@H]4C[C@H]4CC[C@@H](C(=O)N5CC(c6cnccc6OCC)C5)N4C3=O)cc2c1` (stereo partly drawn) [Compound 423, propyl(((S)-(2-(((3S,6S,7aS,8aR,9aR)-3-(3-(4-ethoxypyridin-3-yl)azetidine-1-carbonyl)-5-oxodecahydro-1H-cyclopropa[d]pyrrolo[1,2-a]azocin-6-yl)carbamoyl)benzo[b]thiophen-5-yl)fluoromethyl)(phenoxy)phosphoryl)-L-alaninate] is less than 100 nM; for `CCCOC(=O)[C@H](C)NP(=O)(Oc1ccccc1)C(F)c1ccc2sc(C(=O)N[C@H]3C[C@@H]4C[C@@H]4C[C@H]4CC[C@@H](C(=O)N5CC(c6cnccc6N6CCN(C)CC6)C5)N4C3=O)cc2c1` (stereo partly drawn) [Compound 424, propyl(((R)-fluoro(2-(((3S,6S,7aS,8aR,9aR)-3-(3-(4-(4-methylpiperazin-1-yl)pyridin-3-yl)azetidine-1-carbonyl)-5-oxodecahydro-1H-cyclopropa[d]pyrrolo[1,2-a]azocin-6-yl)carbamoyl)benzo[b]thiophen-5-yl)methyl)(phenoxy)phosphoryl)-L-alaninate] it is 100 to 1000 nM. On to “propyl(((2-(((3S,6S,7aS,8aR,9aR)-3-((1R,5R)-2-acetyl-2,6-diazabicyclo[3.2.0]heptane-6-carbonyl)-5-oxodecahydro-1H-cyclopropa[d]pyrrolo[1,2-a]azocin-6-yl)carbamoyl)benzo[b]thiophen-5-yl)fluoromethyl)(phenoxy)phosphoryl)-L-alaninate [Compound 292]”, for which the IC50 under setting [1] was less than 100 nM. As for “propyl(((2-(((3S,6S,7aS,8aR,9aR)-8a-methyl-5-oxo-3-(3-(pyridin-3-yl)azetidine-1-carbonyl)decahydro-1H-cyclopropa[d]pyrrolo[1,2-a]azocin-6-yl)carbamoyl)benzo[b]thiophen-5-yl)methyl)(phenoxy)phosphoryl)-L-alaninate [Compound 233]”, the IC50 under setting [1] is less than 100 nM.

In the case of “propyl(((2-(((3S,6S,8aR,9aS,9bR)-8a-methyl-5-oxo-3-(3-(pyridin-3-yl)azetidine-1-carbonyl)decahydro-1H-cyclopropa[c]pyrrolo[1,2-a]azocin-6-yl)carbamoyl)benzo[b]thiophen-5-yl)methyl)(phenoxy)phosphoryl)-L-alaninate [Compound 232]”, the IC50 under setting [1] is less than 100 nM.
